# Laboratory results published in PMC8348017 (Molecules, 2021).
# What was measured:
# Assay type in all cases: biochemical
# hMAO-A = target: T1, hMAO-A (Homo sapiens, UniProt P21397); test: Amplex Red MAO fluorimetric assay, % inhibition at […]; details: read-out: hMAO-A % Inh 100 μM
# T1 construct: gene MAOA; recombinant hMAO-A
# T1 sequence (P21397 1-527): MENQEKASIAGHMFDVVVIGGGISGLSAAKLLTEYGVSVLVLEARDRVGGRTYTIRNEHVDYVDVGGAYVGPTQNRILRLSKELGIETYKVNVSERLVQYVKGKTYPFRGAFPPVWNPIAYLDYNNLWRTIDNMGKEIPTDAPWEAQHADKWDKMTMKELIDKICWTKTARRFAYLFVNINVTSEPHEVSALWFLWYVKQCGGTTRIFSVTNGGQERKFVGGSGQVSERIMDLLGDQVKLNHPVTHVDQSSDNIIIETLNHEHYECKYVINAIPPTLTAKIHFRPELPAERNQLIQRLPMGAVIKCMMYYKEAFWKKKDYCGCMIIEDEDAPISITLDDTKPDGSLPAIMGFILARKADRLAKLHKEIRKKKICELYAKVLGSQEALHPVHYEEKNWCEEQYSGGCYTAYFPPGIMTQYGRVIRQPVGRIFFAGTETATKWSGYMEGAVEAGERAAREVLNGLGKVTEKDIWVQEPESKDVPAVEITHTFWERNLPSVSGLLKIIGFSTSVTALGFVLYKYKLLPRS
# hMAO-B [1] = target: T2, hMAO-B (Homo sapiens, UniProt P27338); test: Amplex Red MAO fluorimetric assay, recombinant enzyme, p-tyramine substrate
# T2 construct: gene MAOB; recombinant hMAO-B
# T2 sequence (P27338 2-520): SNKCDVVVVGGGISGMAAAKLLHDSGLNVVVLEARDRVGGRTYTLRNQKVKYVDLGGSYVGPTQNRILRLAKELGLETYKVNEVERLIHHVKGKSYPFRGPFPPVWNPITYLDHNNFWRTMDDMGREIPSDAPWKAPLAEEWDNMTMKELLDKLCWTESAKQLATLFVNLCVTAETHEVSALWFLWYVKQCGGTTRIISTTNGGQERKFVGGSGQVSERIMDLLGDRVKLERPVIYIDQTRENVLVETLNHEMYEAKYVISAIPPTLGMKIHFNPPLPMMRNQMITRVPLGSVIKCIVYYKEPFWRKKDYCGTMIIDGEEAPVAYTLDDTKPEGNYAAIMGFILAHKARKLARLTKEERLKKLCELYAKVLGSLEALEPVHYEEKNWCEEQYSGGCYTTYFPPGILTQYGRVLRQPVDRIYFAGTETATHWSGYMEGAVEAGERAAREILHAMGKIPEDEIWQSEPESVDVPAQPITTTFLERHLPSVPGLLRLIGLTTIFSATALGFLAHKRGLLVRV
# hMAO-B [2] = target: T2, hMAO-B; test: Amplex Red MAO fluorimetric assay, % inhibition at […]; details: read-out: hMAO-B % Inh 100 μM
# hBuChE = target: T3, hBuChE (Homo sapiens, UniProt P06276); test: Ellman assay, % inhibition at […]; details: read-out: hBuChE % Inh 100 μM
# T3 construct: gene BCHE; BuChE isolated from human serum
# T3 sequence (P06276 29-602): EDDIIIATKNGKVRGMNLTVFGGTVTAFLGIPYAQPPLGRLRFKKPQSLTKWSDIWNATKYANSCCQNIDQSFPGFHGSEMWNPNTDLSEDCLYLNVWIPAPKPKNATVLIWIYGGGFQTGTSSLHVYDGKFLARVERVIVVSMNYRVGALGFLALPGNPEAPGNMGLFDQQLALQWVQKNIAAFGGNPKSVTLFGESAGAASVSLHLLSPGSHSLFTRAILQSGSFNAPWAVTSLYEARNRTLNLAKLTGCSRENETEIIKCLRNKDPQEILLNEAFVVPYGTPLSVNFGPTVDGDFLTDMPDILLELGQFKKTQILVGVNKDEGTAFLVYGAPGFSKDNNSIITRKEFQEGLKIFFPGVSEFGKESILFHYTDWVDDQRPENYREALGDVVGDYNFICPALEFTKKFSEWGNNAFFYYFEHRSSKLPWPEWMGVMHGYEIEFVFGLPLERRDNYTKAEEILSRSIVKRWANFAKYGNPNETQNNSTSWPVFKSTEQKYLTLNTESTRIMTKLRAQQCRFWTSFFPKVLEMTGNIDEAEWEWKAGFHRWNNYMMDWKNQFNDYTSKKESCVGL
Structure (SMILES),inhibition at 100 µM (hMAO-A),IC50 (hMAO-B [1]),inhibition at 100 µM (hMAO-B [2]),inhibition at 100 µM (hBuChE)
"O=C(/C=C(O)/C=C/c1cc(O)c(O)cc1O)/C=C/c1cc2cc(O)c(O)cc2oc1=O [compound 16, 6,7-Dihydroxy-3-(7-(2′,4′,5′-trihydroxyphenyl)-3,5-dioxohepta-1,6-dien-1-yl)coumarin]",58.2 ± 3.9%,26.2 ± 1.76 µM,,
"O=C(/C=C(O)/C=C/c1cc(O)c(O)c(O)c1)/C=C/c1cc2cc(O)c(O)cc2oc1=O [compound 18, 6,7-Dihydroxy-3-(7-(3′,4′,5′-trihydroxyphenyl)-3,5-dioxohepta-1,6-dien-1-yl)coumarin]",51.5 ± 3.45%,,55.7 ± 3.74%,
"O=C(/C=C(O)/C=C/c1cc(O)c(O)cc1O)/C=C/c1cc2ccc(O)c(O)c2oc1=O [compound 12, 7,8-Dihydroxy-3-(7-(2′,4′,5′-trihydroxyphenyl)-3,5-dioxohepta-1,6-dien-1-yl)coumarin]",60.9 ± 4.09%,,,
"O=C(/C=C(O)/C=C/c1cc(O)c(O)c(O)c1)/C=C/c1cc2ccc(O)c(O)c2oc1=O [compound 14, 7,8-Dihydroxy-3-(7-(3′,4′,5′-trihydroxyphenyl)-3,5-dioxohepta-1,6-dien-1-yl)coumarin]",54.3 ± 3.64%,,,
"O=C(/C=C/c1c(O)cc(O)cc1O)CC(=O)/C=C/c1cc2cc(O)c(O)cc2oc1=O [compound 15, 6,7-Dihydroxy-3-(7-(2′,4′,6′-trihydroxyphenyl)-3,5-dioxohepta-1,6-dien-1-yl)coumarin]",,,,50.9 ± 3.41%
